Literature values, collected in patent publication US20150110862A1, “Sweet Gum Fruit Extract as a Therapeutic Agent” (Board of Supervisors of Louisiana State University and …, priority 2007, published 2015).
Converted amounts (≈) assume the structure as drawn.

Columns and labels:
[1] = test system: 39 human cancer cell lines; settings: literature
two-stage carcinogenesis = settings: literature
[2] = test system: UVB-radiation-induced photocarcinogenesis; settings: oral administration, literature
[3] = test system: human prostate cancer PC3 cells; settings: published articles

SMILES | cytotoxicity against 39 human cancer cell lines [1] | anti-tumor activity, two-stage carcinogenesis assay (two-stage carcinogenesis) | tumor incidence and tumor multiplicity vs control group [2] | IC50 against human prostate cancer PC3 cells (reported) [3] [µg/mL]
CC1(C)CCC2(C(=O)O)CCC3(C)C(=CC(=O)C4C5(C)CCC(=O)C(C)(C)C5CCC43C)C2C1 (centres unmarked) [3,11-dioxoolean-12-en-28-oic acid] | weaker activity |  |  | 
CC1(C)CCC2(C(=O)O)CCC3(C)C(=CCC4C5(CO)CCC(O)C(C)(C)C5CCC43C)C2C1 (stereo not drawn) [3α,25-dihydroxyolean-12-en-28-oic acid] | weaker activity |  |  | 
C=C(C)C1CCC2(C(=O)O)CCC3(C)C(CCC4C56CCC(O)(OC5)C(C)(C)C6CCC43C)C12 (stereo not drawn) [3β,25-epoxy-3α-hydroxylup-20(29)-en-28-oic acid] |  | moderate inhibitory activities | approximate halving of the tumor incidence and tumor multiplicity | 
C=C(C)[C@@H]1CC[C@]2(C(=O)O)CC[C@]3(C)[C@@H](CC[C@@H]4[C@@]5(C)CCC(=O)C(C)(C)[C@@H]5[C@H](O)C[C@]43C)[C@@H]12 [6β-hydroxy-3-oxolup-20 (29)-en-28-oic acid] | weaker activity |  |  | 
CC(=O)OC[C@]12CC[C@@H](O)C(C)(C)[C@@H]1CC[C@]1(C)[C@@H]2CC=C2[C@@H]3CC(C)(C)CC[C@]3(C(=O)O)CC[C@]21C [Terpenoid 1, 25-acetoxy-3α-hydroxyolean-12-en-28-oic acid] | strong cytotoxicity | moderate inhibitory activities |  | 5.9 (≈ 11.5 µM)
